Reference: paper PMC4125160, “Neurotoxicity and Mode of Action of N, N-Diethyl-Meta-Toluamide (DEET)” (PLoS ONE, 2014)
pEC50, pIC50: −log10 of the molar value. Values after ≈ are worked out from the molar mass of the structure shown.

Columns and labels:
mosquitoes = experiment: Toxicity to mosquitoes (abstract summary); type: in vivo
Procedure: (§1) Topical toxicity bioassays on adult female mosquitoes were performed based on the method of Pridgeon et al.. Briefly, insects were chilled on ice for 3 min, during which the appropriate volume (200 nL for mosquitoes, 1 µL for Musca) of chemical (dissolved in 95% ethanol) was applied onto the abdomen using a handheld Hamilton microapplicator. For each inhibitor, five doses were applied to groups of ten insects each and repeated three times. An ethanol-only treatment was included in each experiment as a negative control. Insects were transferred into a holding chamber post-treatment and supplied with free access to sugar water for the duration of the experiment. […] Three LD50 values were obtained and the mean LD50 value was calculated and used for statistical analysis.

[1] = system: Anopheles gambiae G3 (susceptible); experiment: WHO filter paper contact toxicity bioassay; type: in vivo; conditions: WHO filter paper assay, 1 h exposure, mortality at 24 h, read-out: LC50 (95% CI)
Procedure: (§2) Contact toxicity bioassays were performed on both strains of Anopheles gambiae, G3 (susceptible) and AKRON (pyrethroid and anticholinesterase resistance) according to WHO protocol. Adult female mosquitoes were 2–5 days of age and non-blood fed at the time of experimentation. Five concentrations of inhibitor dissolved in ethanol were prepared and treated by applying 2 mL of each concentration on a 180 cm^2 (12 cm×15 cm) paper. Papers were left to dry for 24 hours prior to use. Mosquitoes were chilled for three minutes on ice, after which 25 females were placed in the WHO kit holding chamber to recover for one hour. Mosquitoes were then moved to the treatment chamber, which contain the treated paper, and exposed for one hour. After the one-hour exposure, the mosquitoes were transferred back to the holding chamber and maintained on 10% sugar solution for 24 hrs. Each concentration was repeated in triplicate. […] Three LC50 values were obtained and the mean LC50 value was used for statistical analysis.
(§3) For all toxicity assays, control mortality was corrected for using Abbots formula [19]; where corrected percent mortality = (% alive in control–% alive in treated) /% alive in control.

[2] = system: Anopheles gambiae AKRON (pyrethroid and anticholinesterase resistance); experiment: WHO filter paper contact toxicity bioassay; type: in vivo; conditions: WHO filter paper assay, 1 h exposure, mortality at 24 h, read-out: LC50 (95% CI)
Procedure: as §2, §3

[3] = system: housefly larval central nervous system; experiment: Neurophysiological recordings of CNS nerve discharge in housefly larvae; conditions: Musca domestica; intact CNS; value (95% CI); read-out: EC50, excitation of nerve firing
Ae. aegypti = experiment: WHO filter paper contact toxicity bioassay; type: in vivo; conditions: Aedes aegypti; WHO filter paper assay, 1 h exposure, mortality at 24 h; read-out: LC50 (95% CI)
[4] = system: sodium channels in neonatal rat cortical neurons; experiment: Patch clamp of rat cortical neurons, sodium currents; type: cell-based
Procedure: (§4) Rat cortical neurons (purchased from Lonza, Walkersville, MD, USA) were placed on poly-lysine coated glass cover slips in 35 mm dishes, and cultured in primary neuron basal medium with added 2% neural grown factor and 1% glutamine (from Lonza). The medium was half changed every 3 days, and the cells were used at 6–12 days. The neurons had dendrites and axons and the diameters of the somata were about 15–20 µm. Cells were cultured on cover slips and were immersed in 35 mm Petri dishes filled with room temperature extracellular saline. Patch pipettes were pulled from borosilicate glass capillaries with filament (BF150-86-10, Sutter Instrument, Novato CA, USA) on a P-1000 Flaming/Brown micropipette puller (Sutter Instrument). Extracellular solution was the same regardless of the target ion channel and contained: 140 mM NaCl, 5 mM KCl, 2 mM MgCl2, 2 mM CaCl2, 10 mM glucose, and 10 mM HEPES (pH = 7.4). Intracellular patch solution for potassium channel recordings consisted of: 140 mM KF, 10 mM NaCl, 2 mM MgCl2, and 10 mM HEPES (pH = 7.2). Intracellular patch solution for sodium channel recordings consisted of: 140 mM CsCH3SO3 10 mM NaCl, 2 mM MgCl2, 10 mM HEPES (pH = 7.2), where CsCH3SO3 was used to eliminate potassium currents during sodium channel analysis. The patch electrodes had resistances of 5–7 MOhms.
Patch clamp recordings were performed with a 40x/0.80W water immersion objective (working distance 3.5 mm) using a forced-air-cooled Photometrics Evolve 512/CCD97 camera system. Following gigaseal formation, the membrane was ruptured through a brief, manual suction of the electrode, or by a 2 msec long zap pulse. Currents were amplified with the use of a patch-clamp amplifier (Axopatch 200B, Molecular Devices LLC, Sunnyvale, CA, USA) and processed for analysis via A/D-converter (Digidata 1440A, Molecular Devices LLC). Recordings underwent series resistance compensation, low-pass filtering at 1 kHz, and were sampled at 10 kHz or 100 kHz for potassium and sodium currents, respectively. For recording and analyzing data, pClamp 10.0 software (Molecular Devices LLC) was used.

M. domestica = experiment: Topical toxicity bioassay; type: in vivo, Musca domestica
Procedure: as §1, §3

[5] = system: potassium channels (Kv2 delayed rectifier) in neonatal rat cortical neurons; experiment: Patch clamp of rat cortical neurons, potassium currents; type: cell-based
Procedure: as §4, with “MOhms. […]” for “MOhms.”

Drosophila melanogaster = experiment: Diet (sugar-feeding) toxicity assay; type: in vivo; conditions: 1 mg/ml, mortality at 24 h
Procedure: Diet toxicity assays were performed on mixed sex adult Drosophila melanogaster fasted for 8 hours prior to initiating the experiment. Flies were transferred into a container stoppered with a cotton ball infused with 1 ml of a sucrose/DEET solution containing 20 insects (2–3 day old adults). The assay was run three times on three different days with matched controls. Mortality was recorded at the 24-hour time point.
as §3

For CCN(CC)C(=O)c1cccc(C)c1 [DEET, N, N-diethyl-meta-toluamide], the LD50 (mosquitoes) was “ca. 1.5 µg/mg”, the LC50 [1] was 1900 µg/mL (≈ 9.93 mM) and the LC50 [2] was 2700 µg/mL (≈ 14.1 mM). For the same compound, the pEC50 [3] was 3.68, the LC50 (Ae. aegypti) was 2300 µg/mL (≈ 12 mM) and the “block of inward sodium currents in words” value ([4]; 1 mM) was “completely blocked”. For the same compound, the “sodium current amplitude restored by washout” value ([4]; after 1 mM block) was “approximately 50%”, the pIC50 ([4]; read-out: IC50 against sodium channels) was ~3.15 and the “LD50 (95% CI)” value (M. domestica; topical application, 24 hr) was 8104 (7026–9000)c ng/mg. For the same compound, the signs of intoxication (M. domestica; toxicologically equivalent doses) was “mostly lethargic with only occasional bouts of excitation”, the “control current amplitude restored by washout” value [5] was “approximately 50%” and the “toxicity in sugar-feeding assay” value (Drosophila melanogaster) was “non-toxic”.
